From publication PMC11290850, “Screening of synthetic 1,2,3-triazolic compounds inspired by SRPIN340 as anti-Trypanosoma cruzi agents” (Revista da Sociedade Brasileira de Medicina Tropical, 2024)
Entries after “also recorded” stand apart in the source; their conditions may differ. Read-outs that look alike come from different tables or passages of the source.

What was measured:
[1] = system: intracellular amastigotes of Trypanosoma cruzi Tulahuen transfected with β-galactosidase strain; test: In vitro trypanocidal activity, β-galactosidase-expressing T. cruzi in L929 fibroblasts; type: cell-based; settings: for IC50: intracellular amastigotes, Tulahuen β-galactosidase strain, 96 hours of exposition; for Selectivity index (SI): CC50 (L929)/IC50 (T. cruzi Tulahuen)
Description: The in vitro assays were conducted at the Centro de Pesquisas René Rachou-Fiocruz (FIOCRUZ-MINAS), Minas Gerais, Brazil. To evaluate trypanocidal activity, initial in vitro screening was performed following the protocols described by Buckner et al.[43] and Romanha et al.. In this assay, Tulahuen T. cruzi strain expressing β-galactosidase trypomastigotes and intracellular amastigotes were cultured in mouse L929 fibroblasts in RPMI1640 medium without phenol red and containing 10% fetal bovine serum. Tissue culture microplates with L929 fibroblasts were incubated overnight at 37°C with 5% CO2. Subsequently, the Tulahuen β-galactosidase-expressing trypomastigotes were added at a ratio of 1:10 cells to trypomastigotes for 2 hours. The medium was then replaced with fresh medium, and the cultures were incubated for 48 hours. Following this step, the medium was replaced with a solution of the test compound, diluted in dimethyl sulfoxide (DMSO, less than 1%), in RPMI1640 medium with concentrations ranging from 5 to 20 µM. […] Benznidazole was utilized as a positive control at 1 µg/mL (3.84 µM).
(§1) Because the amount of beta-galactosidase is directly proportional to the number of parasites, trypanocidal activity was assessed by measuring the decrease in beta-galactosidase activity in the treated cultures compared to the infected control culture without treatment. To determine the cytotoxicity of the compounds on L929 cells, absorbance was measured at two wavelengths (570 and 600 nm) after 4-6 hours of incubation with alamarBlue® reagent (Invitrogen Corporation, USA). Cytotoxicity was evaluated by analyzing the difference in reagent reduction between treated cells (TC) and untreated cells (UT) using an equation provided by the manufacturer of alamarBlue®: […]
(§2) Half-maximum inhibitory concentration (IC50) and half-maximum cytotoxicity concentration (CC50) values were determined through linear interpolation[45] using Excel software (Microsoft Corporation, USA). The assay was conducted in triplicate, and the results are expressed as the percentage inhibition of parasite growth Cytotoxicity assay.

[2] = Cytotoxicity on L929 cells (alamarBlue); type: cell-based; settings: mouse, L929 fibroblasts (infected with T. cruzi), 96-hour exposure
Description: as §1, §2
In vitro cytotoxicity assessments of the compounds were performed using AlamarBlue®. The cells and experimental conditions mirrored those used for the trypanocidal assay. After a 96-hour exposure of mouse L929 fibroblasts infected with T. cruzi to the test compounds, alamarBlue® was added, and absorbance was measured after an additional 4-6-hour incubation. IC50 values were determined by linear interpolation, and the selectivity index (SI) was calculated as the ratio of CC50 (the concentration causing 50% cytotoxicity) to IC50 (the concentration causing 50% parasitic inhibition). Benznidazole served as the positive control for comparative analysis.

U87MG lineage = system: U87MG lineage; set-up: method as in earlier work; settings: human glioblastoma cells; cited from earlier work
[3] = system: Trypanosoma cruzi Y strain; test: In vivo rapid test, parasitemia in Swiss mice infected with T. cruzi Y strain; settings: for Reduction in parasitemia: oral gavage once daily for five days, doses of 10, 50, and 250 mg/kg/day; for Overall performance in vivo compared with BZ / Parasitemia compared to infected untreated animals / Parasitemia compared to the untreated group: oral; for Overall performance in vivo compared with BZ: BZ at 100 mg/kg; for Parasitemia compared to infected untreated animals: doses of 50 and 250 mg/kg/day; for Parasitemia compared to the untreated group: smallest dose 10 mg/kg/day
Description: The in vivo assays were conducted at the Laboratório de Pesquisas Clínicas, Escola de Farmácia, Universidade Federal de Ouro Preto (UFOP), Minas Gerais State, Brazil, utilizing only compounds with a selectivity index (SI) exceeding 50 (Table 1).
Swiss female mice aged 28-30 days were obtained from the Centro de Ciência Animal of the Universidade Federal de Ouro Preto (UFOP), Minas Gerais State, Brazil. The animals were housed in a temperature range of 20-24 °C with a 12-hour light-dark cycle, and had ad libitum access to filtered water and commercial feed. The experimental procedures were approved by the institutional Comitê de Ética em Experimentação Animal (CEUA-UFOP), Minas Gerais State, Brazil, Protocol 2157041219.
The mice were intraperitoneally infected with 1x10^4 blood trypomastigotes of the T. cruzi Y strain obtained from mice maintained by successive blood passages (CEUA 2015/50). Infection was confirmed by fresh blood examination (FBE)[46] on the 4th day after infection, and treatment commenced. For the in vivo test, the highest concentration attainable when blending the test compounds in various orally safe vehicles was selected. Canola oil yielded the most favorable results. The compounds were diluted with canola oil to the highest possible concentration of 25 mg/mL. Subsequently, two different dilutions (5x) were prepared, resulting in doses of 250, 50, and 10 mg/kg/day. These doses were administered via oral gavage once daily (group n = 8). In parallel, a control group of mice remained infected and untreated (INT), while another group received treatment with the reference drug (BZ) at a dose of 100 mg/kg. The BZ tablets were crushed with 0.5% gum arabic, and suspended in distilled water.
To evaluate the effectiveness of the compounds in reducing parasitemia, FBE was conducted daily for five consecutive days, during which parasitemia was counted.

[4] = Trypanosoma cruzi, TULAHUEN, L929, 96 h, read-out: IC50
[5] = Trypanosoma cruzi, TULAHUEN, L929, 96 h, value in brackets, read-out: IC50
[6] = top concentration limited by solubility (20 to 160 µg/mL)

Structure (SMILES) | IC50 [1, 4] [µg/mL] | IC50 [1, 5] [µM] | CC50 at 96 h [2, 6] [µg/mL] | Cytotoxicity / cellular growth of U87MG lineage (U87MG lineage) | IC50 [1] | Selectivity index (SI) [1] | CC50 at 96 h ([2]; value in brackets) [µM] | Reduction in parasitemia [3] | Overall performance in vivo compared with BZ [3] | Parasitemia compared to infected untreated animals [3] | Parasitemia compared to the untreated group [3]
O=C(Cn1ccnc1[N+](=O)[O-])NCc1ccccc1 [Benznidazole, reference compound] | 1 | 3.81 | 625 |  |  |  |  |  |  |  | 
O=C1c2ccccc2C(=O)N1Cc1cn(-c2cc(C(F)(F)F)ccc2N2CCOCC2)nn1 [Compound 6A] |  |  |  | no perceived cytotoxicity | Not active |  |  |  |  |  | 
FC(F)(F)c1ccc(N2CCOCC2)c(-n2cc(COCc3ccc(Cl)cc3)nn2)c1 [Compound 6B] |  | 5 | 36.1 |  |  | 15.7 | 79 |  |  |  | 
FC(F)(F)c1ccc(N2CCOCC2)c(-n2cc(COCc3ccc(Br)cc3)nn2)c1 [Compound 6C] | < 5 | 6.8 | 80 |  |  | 23.5 | 161 |  |  |  | 
COc1ccc(COCc2cn(-c3cc(C(F)(F)F)ccc3N3CCOCC3)nn2)cc1 [Compound 6D] | 6.6 | 15.7 | > 20 |  |  | >3.0 | > 47.6 |  |  |  | 
FC(F)(F)c1ccc(N2CCOCC2)c(-n2cc(COCc3ccccc3)nn2)c1 [Compound 6E] | 0.5 | 1.3 | 62.6 |  |  | 125.2 | 160 | reduction in parasitemia; also recorded: effectively reduced | inferior overall performance | significantly reduced | did not markedly reduce parasitemia
CCN(CC)c1ccc(C(F)(F)F)cc1-n1cc(COCc2ccc(Cl)cc2)nn1 [Compound 6F] |  |  |  |  | Not active |  |  |  |  |  | 
FC(F)(F)c1ccc(N2CCCCC2)c(-n2cc(COCc3ccc(Cl)cc3)nn2)c1 [Compound 6G] | < 5 | 10.4 | > 160 |  |  |  | > 355 |  |  |  | 
FC(F)(F)c1ccc(N2CCCCC2)c(-n2cc(COCc3ccc(Br)cc3)nn2)c1 [Compound 6H] |  | 4.6 | > 160 |  |  | >69 | > 323 | reduction in parasitemia; also recorded: effectively reduced | inferior overall performance | significantly reduced | did not markedly reduce parasitemia
O=C1c2ccccc2C(=O)N1Cc1cn(-c2cc(C(F)(F)F)ccc2N2CCCCC2)nn1 [Compound 6I] |  |  |  |  | Not active |  |  |  |  |  | 
FC(F)(F)c1ccc(N2CCCCC2)c(-n2cc(COCc3ccccc3)nn2)c1 [Compound 6J] | 6.5 | 15.6 | > 20 |  |  |  | > 48 |  |  |  | 
COc1ccc(COCc2cn(-c3cc(C(F)(F)F)ccc3N3CCCCC3)nn2)cc1 [Compound 6K] | 10.5 | 23.5 | > 20 |  |  |  | > 45 |  |  |  | 
